Assay results published in article PMC7015663 (Journal of the American Chemical Society, 2019).

Target: T1, RNase A (Bos taurus, UniProt P61823)
T1 sequence (P61823 27-150): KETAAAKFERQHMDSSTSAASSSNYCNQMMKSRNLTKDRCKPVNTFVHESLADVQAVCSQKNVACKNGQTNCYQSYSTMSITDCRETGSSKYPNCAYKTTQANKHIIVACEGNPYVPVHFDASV
Experiment: not given
Conditions: ref [7]; cited from earlier work
In the case of Nc1ncnc2c1ncn2[C@@H]1O[C@H](COP(=O)(O)OP(=O)(O)O[C@H]2C[C@H](n3ccc(=O)[nH]c3=O)O[C@@H]2CO)[C@@H](OP(=O)(O)O)[C@H]1O [dUppAp], the Ki is given as 0.12 µM.
For Cc1cn([C@H]2C[C@H](OP(=O)(O)OP(=O)(O)OC[C@H]3O[C@@H](n4cnc5c(N)ncnc54)C[C@@H]3O)[C@@H](CO)O2)c(=O)[nH]c1=O [TppdA], the Ki is listed as 4 µM.
In the case of Nc1ncnc2c1ncn2[C@@H]1O[C@H](COP(=O)(O)OP(=O)(O)O)[C@@H](OP(=O)(O)O)[C@H]1O [ppAp], the Ki is given as 0.24 µM.
In the case of Nc1ncnc2c1ncn2C1OC(COP(=O)(O)OP(=O)(O)OC2CC(n3ccc(=O)[nH]c3=O)OC2COP(=O)(O)O)C(OP(=O)(O)O)C1O (stereo not drawn) [pdUppAp], the Ki is listed as 0.027 µM.
For Cc1cn(C2CC(OP(=O)(O)OP(=O)(O)OCC3OC(n4cnc5c(N)ncnc54)C(O)C3OP(=O)(O)O)C(COP(=O)(O)O)O2)c(=O)[nH]c1=O (stereo not drawn) [pdTppAp], the Ki is listed as 0.041 µM.

Same assay, conditions: ref [10]; cited from earlier work
In the case of Nc1ncnc2c1ncn2[C@@H]1O[C@H](COP(=O)(O)OP(=O)(O)OP(=O)(O)OC[C@H]2O[C@@H](n3cnc4c(N)ncnc43)[C@H](O)[C@@H]2O)[C@@H](O)[C@H]1O [Ap3A], the Ki is given as 29 µM.
In the case of Nc1ncnc2c1ncn2[C@@H]1O[C@H](COP(=O)(O)OP(=O)(O)OP(=O)(O)O)[C@@H](O)[C@H]1O [p3A], the Ki is given as 0.86 µM.
In the case of Nc1ncnc2c1ncn2[C@@H]1O[C@H](COP(=O)(O)OP(=O)(O)OP(=O)(O)OP(=O)(O)OC[C@H]2O[C@@H](n3cnc4c(N)ncnc43)[C@H](O)[C@@H]2O)[C@@H](O)[C@H]1O [Ap4A], the Ki is given as 2.6 µM.
In the case of Nc1ncnc2c1ncn2[C@@H]1O[C@H](COP(=O)(O)OP(=O)(O)OP(=O)(O)OP(=O)(O)OP(=O)(O)OC[C@H]2O[C@@H](n3cnc4c(N)ncnc43)[C@H](O)[C@@H]2O)[C@@H](O)[C@H]1O [Ap5A], the Ki is given as 0.23 µM.

Same assay, conditions: ref [40]; cited from earlier work
For O=P(O)(O)O [Pi, orthophosphate], the Ki is given as 4600 µM.
In the case of O=P(O)(O)OP(=O)(O)O [P2i, pyrophosphate], the Ki is given as 170 µM.

Same assay, conditions: ref [41]; cited from earlier work
For Nc1ncnc2c1ncn2[C@@H]1O[C@H](COP(=O)(O)OP(=O)(O)O)[C@@H](O)[C@H]1O [p2A], the Ki is listed as 1.2 µM.

Same assay, conditions: ref [42]; cited from earlier work
For O=c1ccn([C@@H]2O[C@H](COP(=O)(O)O)[C@@H](O)[C@H]2O)c(=O)[nH]1 [pU], the Ki is listed as 4000 µM.

Same assay, conditions: ref [43]; cited from earlier work
In the case of O=c1ccn([C@@H]2O[C@H](COP(=O)(O)OP(=O)(O)O)[C@@H](O)[C@H]2O)c(=O)[nH]1 [p2U], the Ki is given as 650 µM.

Target: T1, RNase A
Experiment: Salt dependence of inhibition/binding of RNase A
Type: biochemical, bovine
Conditions: salt dependence of inhibition (Figure S30)
In the case of O=c1ccn([C@@H]2O[C@H](COP(=O)(O)OP(=O)(O)OP(=O)(O)OP(=O)(O)OP(=O)(O)O)[C@@H](O)[C@H]2O)c(=O)[nH]1 [p5U], the “δlogKd/δlog[Na+]” value is reported as 3.2.

Target: T1, RNase A
Experiment: Inhibition kinetics of RNase A using a fluorogenic substrate
Type: biochemical, bovine
Conditions: ± standard error of fitting one-site binding equation; this work
In the case of Nc1ncnc2c1ncn2[C@@H]1O[C@H](COP(=O)(O)O)[C@@H](O)[C@H]1O [pA], the Ki is reported as 170 ± 6 µM.
Compound O=P1(O)OP(=O)(O)OP(=O)(O)OP(=O)(O)O1 [cP4i, tetrametaphosphate] has a Ki of 30 ± 0.8 µM.
Compound O=P(O)(O)OP(=O)(O)OP(=O)(O)O [P3i] has a Ki of 23 ± 1 µM.
For O=P1(O)OP(=O)(O)OP(=O)(O)O1 [cP3i, trimetaphosphate], the Ki was 960 ± 80 µM.
O=c1ccn([C@@H]2O[C@H](COP(=O)(O)OP(=O)(O)OP(=O)(O)OP(=O)(O)O)[C@@H](O)[C@H]2O)c(=O)[nH]1 [p4U, uridine tetraphosphate] showed a Ki of 1.8 ± 0.1 µM.
Work on O=c1ccn(C2OC(COP(=O)(O)OP3(=O)OP(=O)(O)OP(=O)(O)OP(=O)(O)O3)C(O)C2O)c(=O)[nH]1 (stereo not drawn) [cp4pU] yielded a Ki of 0.98 ± 0.07 µM.
Nc1ncnc2c1ncn2C1OC(COP(=O)(O)OP2(=O)OP(=O)(O)OP(=O)(O)OP(=O)(O)O2)C(O)C1O (stereo not drawn) [cp4pA] gave a Ki of 0.48 ± 0.03 µM.
Nc1ncnc2c1ncn2[C@@H]1O[C@H](COP(=O)(O)OP(=O)(O)OP(=O)(O)OP(=O)(O)O)[C@@H](O)[C@H]1O [p4A, adenosine tetraphosphate] showed a Ki of 2.1 ± 0.2 µM.
For O=c1ccn([C@@H]2O[C@H](COP(=O)(O)OP(=O)(O)OP(=O)(O)OP(=O)(O)OP(=O)(O)O)[C@@H](O)[C@H]2O)c(=O)[nH]1 [p5U], the Ki was 0.068 ± 0.007 µM.
In the case of O=P1(O)OP(=O)(O)OP(=O)(O)OP(=O)(O)OP(=O)(O)OP(=O)(O)O1 [cP6i, hexametaphosphate], the Ki is reported as 6.2 ± 0.1 µM.
Nc1ncnc2c1ncn2[C@@H]1O[C@H](COP(=O)(O)OP(=O)(O)OP(=O)(O)OP(=O)(O)OP(=O)(O)O)[C@@H](O)[C@H]1O [p5A] gave a Ki of 1.4 ± 0.06 µM.
For O=c1ccn([C@@H]2O[C@H](COP(=O)(O)OP(=O)(O)OP(=O)(O)O)[C@@H](O)[C@H]2O)c(=O)[nH]1 [p3U], the Ki was 8.3 ± 0.3 µM.
